# From patent publication US6649658B1, “(−)-Verbenone derivatives” (Euphar Group SRL, priority 1999, dated 2003)
# Experiments:
# Adverse Gastric Activity = assay: Adverse gastric activity in the rat per os (Osterloh); type: in vivo; details: for evaluation of adverse gastric action according to Osterloh: rat, per os, 360 mg/kg, residual adverse gastric action after treatment
# Excerpt: (§1) The anti-inflammatory activity of 3-amino-(−)-verbenone-5-sulphosalicylate was compared with that of (−)-verbenone in accordance with methods described in the literature (C. A. WINTER et al. Carrageenin induced edema in hind paw of the rat as an assay for antinflammatory drugs. Proc. Soc. Exp. Biol. Med. 111, 544, 1962. CURVOISIER et al. Action of chlorpromazine on the edema produced by dextran in rats. Arch. Inter. Pharmacodynamie, 102, 33-54, 1955. B. B. NEWBOULD) Chemotherapy of arthritis induced in rats by microbacterial adjuvant. Brit. J. Pharmacol. 21, 127-135, 1963. J. V. HURLEY et al. Reagin-Like antibodies in animals immune to helminth parasites. Nature (Lond.) 204, 91, 1964. ROTHKOPF et al. Arzneimittel Forschung 26, 225-235, 1976. C. A. WINTER et al. Antitussive compounds: testing methods and results. J. Pharmacol. Exp. Ther. 112, 99, 1954. G. OSTERLOH Arzneimittel Forschung, 16, 901, 1966); the results are given hereinafter in schematic form.
# 8. Adverse Gastric Activity in the Rat per OS
# Parameter: evaluation of adverse gastric action according to Osterloh
# (§2) N. B. It should be emphasised in this connection that the results of Examples 1-6 have been given as a percentage of volumetric inhibition; Examples 7 and 8, however, indicate inflammation and adverse gastric action of a residual nature after treatment.
# [1] = system: Carrageenin-induced Oedema; assay: Carrageenin-induced oedema in the rat by the intraperitoneal route; type: in vivo; details: 120 mg/kg, maximum effect 120 minutes after administration
# Excerpt: as §1
# 2. Carrageenin-induced Oedema in the Rat by the Intraperitoneal Route
# (§3) Parameter: percentage volumetric inhibition; maximum effect 120 minutes after administration: […]
# [2] = system: Carrageenin-induced Pleurisy; assay: Carrageenin-induced pleurisy in the rat by the intraperitoneal route; type: in vivo; details: 25 mg/kg
# Excerpt: as §1
# 6. Carrageenin-induced Pleurisy in the Rat by the Intraperitoneal Route
# (§4) Parameter: percentage inhibition of the volume of exudate: […]
# Adjuvant Arthritis = assay: Adjuvant arthritis in the rat by the intraperitoneal route; type: in vivo; details: 60 mg/kg, day 28
# Excerpt: as §1
# 3 Adjuvant Arthritis in the Rat by the Intraperitoneal Route
# Parameter: percentage inhibition of the volumetric increase of the lower limbs; day “28”: […]
# [3] = system: Turpentine-induced Pleurisy; assay: Turpentine-induced pleurisy in the rat by the intraperitoneal route; type: in vivo; details: 60 mg/kg
# Excerpt: as §1
# 4. Turpentine-induced Pleurisy in the Rat by the Intraperitoneal Route
# Parameter: percentage inhibition of the volume of exudate and of leukocyte migration: […]
# [4] = system: Acrolein-induced Aerosol (inflammation of the airways); assay: Acrolein-induced aerosol in the guinea pig by the intraperitoneal route; type: in vivo; details: 30 mg/kg, residual inflammation after treatment (lower is better)
# Excerpt: as §1
# 7. Acrolein-induced Aerosol in the Guinea Pig by the Intraperitoneal Route
# Parameter: inflammation of the upper, middle, lower airways: scores (double blind):
# as §2
# [5] = system: Carrageenin-induced Pleurisy; assay: Carrageenin-induced pleurisy in the rat per os; type: in vivo; details: 180 mg/kg
# Excerpt: as §1
# 5. Carrageenin-induced Pleurisy in the Rat per OS
# as §4
# [6] = system: Carrageenin-induced Oedema; assay: Carrageenin-induced oedema in the rat per os; type: in vivo; details: 200 mg/kg, maximum effect 120 minutes after administration
# Excerpt: as §1
# 1. Carrageenin-induced Oedema in the Rat per OS
# as §3
# Water solubility = type: physicochemical; details: in words
# [7] = Stability on storage or handling; type: physicochemical; details: in words
compound,measurement,setting,value
3-Aminoverbenone-5-sulphosalicylate [3-amino-(−)-verbenone-5-sulphosalicylate],evaluation of adverse gastric action according to Osterloh,Adverse Gastric Activity,0.85
same,adverse gastric activity compared with (−)-verbenone,"Adverse Gastric Activity; test 8, in words",substantially lower adverse gastric activity
same,percentage volumetric inhibition,[1],67%
same,percentage inhibition of the volume of exudate,[2],64%
same,percentage inhibition of the volumetric increase of the lower limbs,Adjuvant Arthritis,64%
same,percentage inhibition of the volume of exudate and of leukocyte migration,[3],68%
same,"inflammation of the upper, middle, lower airways: scores (double blind)",[4],18
same,percentage inhibition of the volume of exudate,[5],72%
same,percentage volumetric inhibition,[6],78%
"CC1=CC(=O)[C@H]2C[C@@H]1C2(C)C [(−)-verbenone, (1S,5S)-4,6,6-Trimethylbicyclo[3.1.1]hept-3-en-2-one]",evaluation of adverse gastric action according to Osterloh,Adverse Gastric Activity,2
same,percentage volumetric inhibition,[1],48%
same,solubility in water,Water solubility,water-insolubility
same,percentage inhibition of the volume of exudate,[2],48%
same,percentage inhibition of the volumetric increase of the lower limbs,Adjuvant Arthritis,39%
same,percentage inhibition of the volume of exudate and of leukocyte migration,[3],49%
same,stability,[7],instability over time
same,"inflammation of the upper, middle, lower airways: scores (double blind)",[4],24
same,percentage inhibition of the volume of exudate,[5],46%
same,percentage volumetric inhibition,[6],63%
"C=C1C=C(N2CCCC2)[C@H]2C[C@H]1C2(C)C [Compound 9c, (1S,5S)-6,6-Dimethyl-4-methylene-2-pyrrolidinobicyclo[3.1.1]hept-2-ene]",stability,[7],"sensitive to oxygen, moisture and light"
